Values quoted from earlier work in patent US20090004173A1, “Diagnosis and Treatment of Drug Resistant Leukemia” (priority 2004, published 2009).
Like-named read-outs stand apart in the source and are kept apart here.

B1: L-asparaginase (protein, UniProt P00805 23-348, looked up)
L-asparaginase 2: LPNITILATGGTIAGGGDSATKSNYTVGKVGVENLVNAVPQLKDIANVKGEQVVNIGSQDMNDNVWLTLAKKINTDCDKTDGFVITHGTDTMEETAYFLDLTVKCDKPVVMVGAMRPSTSMSADGPFNLYNAVVTAADKASANRGVLVVMNDTVLDGRDVTKTNTTDVATFKSVNYGPLGYIHNGKIDYQRTPARKHTSDTPFDVSKLNELPKVGIVYNYANASDLPAKALVDAGYDGIVSAGVGNGNLYKSVFDTLATAAKTGTAVVRSSRVPTGATTQDAEVDDAKYGFVASGTLNPQKARVLLQLALTQTKDPQQIQQIFNQY

Experiments:
[1] = tested on: non-leukemic cell lines; details: Niitsu et al. (2000)
[2] = tested on: leukemia cells; details: for LC50 values for classification of ALL: Resistant / LC50 values for classification of ALL: Sensitive: LC50 by MTT, cut-off previously associated with treatment outcome
[3] = classification cut-off: cell is resistant if LC-50 is equal to or greater than the value

Molecule	sensitization to the cytotoxicity of daunorubicin and doxorubicin [1]	LC50 values for classification of ALL: Resistant [2]	LC50 values for classification of ALL: Sensitive [2]	LC-50 values for classifying leukemia cells as drug-resistant [2, 3]	LC-50 values for classifying leukemia cells as drug-resistant [2]
CCCC(=O)OCOC(=O)C(C)(C)C [AN-9]	sensitize non-leukemic cell lines to the cytotoxicity of daunorubicin and doxorubicin				
COc1cccc2c1C(=O)c1c(O)c3c(c(O)c1C2=O)C[C@@](O)(C(C)=O)C[C@@H]3O[C@H]1C[C@H](N)[C@H](O)[C@H](C)O1 [Daunorubicin, daunorubicin]		≧0.114 μg/ml	≦0.075 μg/ml	≧0.114 μg/ml	
C[C@]12C=CC(=O)C=C1CC[C@@H]1[C@@H]2[C@@H](O)C[C@@]2(C)[C@H]1CC[C@]2(O)C(=O)CO [Prednisolone, prednisolone]		≧150 μg/ml	≦0.100 μg/ml	≧150 μg/ml	
CC[C@]1(O)C[C@H]2CN(CCc3c([nH]c4ccccc34)[C@@](C(=O)OC)(c3cc4c(cc3OC)N(C=O)[C@H]3[C@@](O)(C(=O)OC)[C@H](OC(C)=O)[C@]5(CC)C=CCN6CC[C@]43[C@@H]65)C2)C1 [Vincristine, vincristine]		≧1.758 μg/ml	≦0.391 μg/ml	≧1.758 μg/ml	
B1		≧0.912 IU/ml	≦0.033 IU/ml		≧0.912 IU/ml
